In patent US10214746B2, “Soybean transformation method” (Dow AgroSciences LLC, priority 2013, dated 2019):
Entries after “also recorded” stand apart in the source; their conditions may differ.

How the values were obtained:
[1] = test system: non-transgenic soybean shoots; experiment: Growth response (rooting) of non-transgenic soybean shoots on rooting medium with glufosinate; format: in vivo
Description: Growth response studies to varying concentrations of selection agent were conducted using non-transgenic soybean shoots. In this example, glufosinate was used as the exemplary selection agent. Soybean shoots were regenerated from split-seed soybean tissues and cultivated on Shoot Induction medium until shoots had developed and were ready for transfer to rooting medium. Several different concentrations of glufosinate (0, 0.25 mg/L, 0.50 mg/L, 1 mg/L, 2 mg/L, 3 mg/L, 4 mg/L, 5 mg/L, and 6 mg/L) were incorporated into rooting medium (MS salts, B5 vitamins, 28 mg/L ferrous, 38 mg/L Na^2EDTA, 20 g/L sucrose and 0.59 g/L MES, 50 mg/L asparagine, 100 mg/L L-pyroglutamic acid, and 7 g/L NOBLE™ agar, pH 5.6) to determine which concentrations of glufosinate inhibited root development. […] However, 90% and 50% of the soybean shoots cultivated in rooting medium containing glufosinate at concentrations of 0.25 mg/L and 0.5 mg/L, respectively, produced roots. (see Table 1). The effective glufosinate concentration for inhibition of soybean shoot growth and development was determined to be at least 1.0 mg/L of glufosinate. Higher concentrations of glufosinate (e.g., concentrations greater than 1.0 mg/L) were effective in inhibiting root development.

[2] = test system: transgenic soybean shoots; experiment: Root development and yellow fluorescence protein expression of pDAB9381-transformed soybean shoots on rooting medium with glufosinate; format: in vivo, Glycine max
Description: The transformed soybean seeds were cultivated using the tissue culture protocol as described in U.S. Filing No. 61/739,349, herein incorporated by reference. Co-cultivation of the soybean plant seeds with an Agrobacterium strain containing the pDAB9381 plasmid was carried out for 5 days on co-cultivation medium covered with a filter paper. After 5 days of incubation on the co-cultivation medium, the explants were washed in liquid Shoot Induction (SI) medium for about 5 to 10 minutes. The explants were then cultured onto Shoot Induction-I (SI-I) medium. The soybean seeds were oriented so the flat side of the soybean seed faced up and the nodal end of the soybean cotyledon was imbedded into the SI-I medium. After 2 weeks of culture at 24° C. with an 18 hour photoperiod, the explants were transferred to the Shoot Induction-II (SI-II) medium supplemented with 6 mg/L glufosinate. After 2 weeks on SI-II medium, the cotyledons were removed from the explants, a flush shoot pad was excised by making a cut at the base of the cotyledon, and the isolated shoot was transferred to the Shoot Elongation (SE) medium. The cultures were transferred to fresh SE medium every two weeks. PETRI™ dishes were not wrapped with filter paper throughout the shoot induction and shoot elongation stages. Lighting sources were provided with an illumination of 80-90 μmoles s-1m-2 for the transformed tissues during shoot induction and shoot elongation.
The elongated shoots were dipped in 1 mg/L indole 3-butyric acid (IBA) for about 1 to 3 minutes to promote rooting prior to transferring of the isolated shoots to rooting medium (MS salts, B5 vitamins, 28 mg/L ferrous, 38 mg/L Na^2EDTA, 20 g/L sucrose and 0.59 g/L MES, 50 mg/L asparagine, 100 mg/L L-pyroglutamic acid, and 7 g/L NOBLE™ agar, pH 5.6) in phyta trays. A selection agent of glufosinate at a concentration of 1 mg/L was incorporated into the rooting medium for a subset of the transformation experiments.
Following culturing in the rooting medium at 24° C., with an 18 hour photoperiod, for 1-2 weeks, the soybean shoots that produced healthy, viable roots were transferred to soil. The soybean shoots comprising healthy, viable roots were placed in soil which was contained in an open plastic sundae cup. The plastic sundae cups containing the transferred soybean shoots comprising roots were placed in a CONVIRON™ for acclimatization of soybean plantlets. The rooted soybean plantlets were acclimated in the open sundae cups for several weeks before the plantlets were transferred to the greenhouse.
Incorporation of a section agent comprising glufosinate in soybean tissue culture rooting medium was tested to reduce the formation of non-germline, chimeric soybean transformation events and escapes. Following Agrobacterium-mediated transformation of soybean (cv. Maverick) with the binary vector, pDAB9381, soybean shoots were regenerated and cultured onto rooting medium that contained a selection agent comprising glufosinate. After root development was initiated on the rooting media comprising glufosinate, the roots were tested for transgene expression (yellow fluorescence protein).
A total of 531 transgenic soybean shoots were produced using the transformation method described above and transferred onto rooting medium containing the selection agent glufosinate. […] (see Table 2). A correlation was observed between yellow fluorescence protein transgene expression and viable, white root formation, wherein a significant majority of the viable, white roots expressed the yellow fluorescence protein transgene in root tissues. (see FIG. 2, FIG. 3, and FIG. 5). Microscopy results confirmed that about 92% of the soybean plants produced from rooting medium comprising a selection agent were transgenic as these soybean plants expressed the yellow fluorescence protein transgene. (see FIG. 2, FIG. 3, and FIG. 5).

[3] = test system: transgenic soybean events; experiment: Heritability analysis of transgenic soybean events produced on rooting medium comprising glufosinate (T1 plants sprayed with glufosinate); format: in vivo
Source text: A total of 153 transgenic soybean events were isolated and grown to maturity. These soybean events were self-fertilized to produce seed that was obtained and analyzed for heritability. All of the 153 transgenic soybean events were confirmed to contain the yellow fluorescent protein and phosphinothricin acetyltransferase transgenes via molecular analysis in the parental T0 soybean plants. For each of the 153 transgenic soybean events, 15 seeds were obtained and germinated in soil under conventional green house conditions. The transgenic soybean plants were grown to the V1 stage of development and were sprayed with 411 g ae/ha glufosinate, which was used as the exemplary selection agent in this example. After treatment with glufosinate, the soybean plants were observed and graded as resistant or susceptible to glufosinate. The transgenic soybean events that produced at least one T1 seedling were determined to be a heritable event.

soybean shoots = experiment: Rooting medium selection of aad-12 transformed soybean shoots with 2,4-D; format: in vivo, soybean (cv. Maverick); details: aad-12 transgene; rooting medium with 2,4-D about 2 to 120 mg/L
Description: Transformed soybean seed can be cultivated using a modified tissue culture protocol as described in U.S. Filing No. 61/739,349, herein incorporated by reference, wherein the selective agent is 2,4-D. Co-cultivation of the soybean plant seeds with Agrobacterium, can be carried out for 5 days on co-cultivation medium covered with a filter paper. After 5 days of incubation on the co-cultivation medium, the explants can be washed in liquid Shoot Induction (SI) medium for about 5 to 10 minutes. The explants can then be cultured onto Shoot Induction-I (SI-I) medium. The soybean seeds are oriented so the flat side of the soybean seed face up and the nodal end of the soybean cotyledon is imbedded into the SI-I medium. After 2 weeks of culture at 24° C. with an 18 hour photoperiod, the explants can be transferred to the Shoot Induction-II (SI-II) medium supplemented with 2 to 120 mg/L 2,4-D. After 2 weeks on SI-II medium, the cotyledons can be removed from the explants, wherein a flush shoot pad is excised by making a cut at the base of the cotyledon, and the isolated shoot is transferred to the Shoot Elongation (SE) medium. The cultures can be transferred to fresh SE medium every two weeks. PETRI™ dishes may not be wrapped with filter paper throughout the shoot induction and shoot elongation stages. […]

[4] = glufosinate 1 mg/L in rooting medium, 531 plants
[5] = root tissues, glufosinate 1 mg/L in rooting medium, 531 plants
[6] = rooting medium comprising glufosinate (1 mg/L)
[7] = Brown/Black Roots on glufosinate rooting medium, 76 events
[8] = Total, 153 T1 events, T1 sprayed with 411 g ae/ha glufosinate
[9] = White Roots on glufosinate rooting medium, 77 events
[10] = glufosinate at least 1 mg/L in rooting medium

CP(=O)(O)CCC(N)C(=O)O (racemic) [glufosinate, DL-phosphinothricin]
Percentage of Shoots that Produced Roots ([1]; glufosinate 0.25 mg/L in rooting medium): 90%
Number of Shoots Producing Roots ([1]; glufosinate 0.25 mg/L, 10 shoots cultivated): 9
Percentage of Shoots that Produced Roots ([1]; glufosinate 0.5 mg/L in rooting medium): 50%
Number of Shoots Producing Roots ([1]; glufosinate 0.5 mg/L, 10 shoots cultivated): 5
Percentage of Shoots that Produced Roots ([1]; glufosinate 1.0 mg/L in rooting medium): 0%
Number of Shoots Producing Roots ([1]; glufosinate 1.0 mg/L, 30 shoots cultivated): 0
Percentage of Shoots that Produced Roots ([1]; glufosinate 2.0 mg/L in rooting medium): 0%
Number of Shoots Producing Roots ([1]; glufosinate 2.0 mg/L, 30 shoots cultivated): 0
Percentage of Shoots that Produced Roots ([1]; glufosinate 3.0 mg/L in rooting medium): 0%
Number of Shoots Producing Roots ([1]; glufosinate 3.0 mg/L, 30 shoots cultivated): 0
Percentage of Shoots that Produced Roots ([1]; glufosinate 4.0 mg/L in rooting medium): 0%
Number of Shoots Producing Roots ([1]; glufosinate 4.0 mg/L, 25 shoots cultivated): 0
Percentage of Shoots that Produced Roots ([1]; glufosinate 5.0 mg/L in rooting medium): 0%
Number of Shoots Producing Roots ([1]; glufosinate 5.0 mg/L, 25 shoots cultivated): 0
Percentage of Shoots that Produced Roots ([1]; glufosinate 6.0 mg/L in rooting medium): 0%
Number of Shoots Producing Roots ([1]; glufosinate 6.0 mg/L, 25 shoots cultivated): 0
root formation of soybean shoots ([1]; rooting media supplemented with 1 to 6 mg/L glufosinate): no root formation was observed
effective glufosinate concentration for inhibition of soybean shoot growth and development ([1]; rooting medium, non-transgenic shoots): at least 1.0 mg/L
Number of Plants with Unhealthy, Brown/Black Roots [2, 4]: 212
Number of Plants with Viable, White Roots [2, 4]: 319
Plants with Unhealthy, Brown/Black Roots (%) [2, 4]: 40%
Plants with Viable, White Roots (%) [2, 4]: 60%
soybean plants produced from rooting medium comprising a selection agent that were transgenic (expressed the yellow fluorescence protein transgene) ([2]; microscopy, shoots with viable, white roots): about 92%
Number of Plants with YFP Expression [2, 5]: 271
Number of Plants with no YFP Expression [2, 5]: 260
Plants with YFP Expression (%) [2, 5]: 51%
Plants with no YFP Expression (%) [2, 5]: 49%
root phenotype of germline transformants [2, 6]: produce healthy, viable roots; also recorded: healthy viable roots were produced
root phenotype of non-germline or chimeric transformants [2, 6]: either do not form roots or develop brown/black roots; also recorded: do not produce viable roots; also recorded: (1) no roots were produced; (2) roots were produced and turned brown; and, (3) roots were produced and turned black
Percentage of heritable events [3, 7]: 7%
Percentage of non-heritable events [3, 7]: 93%
Percentage of heritable events [3, 8]: 48%
Percentage of non-heritable events [3, 8]: 52%
Percentage of heritable events [3, 9]: 90%
Percentage of non-heritable events [3, 9]: 10%
advanced events with viable, healthy roots confirmed to be germline soybean transformants [3, 10]: about 90%
non-germline (chimeric) events eliminated based on root phenotype (brown/black roots or no root development) [3, 10]: about 93%

O=C(O)COc1ccc(Cl)cc1Cl [2,4-D, 2,4-dichlorophenoxyacetic acid]
transgene expression in viable, white roots (soybean shoots): a significant majority of the viable, white roots express the transgene in root tissues
